Experimental data published in patent publication US20210261621A1, “Preparation of Dilipid Polymixins and Use Thereof as Antimicrobial Adjuvants” (priority 2018, published 2021).
In brackets after ≈: the same amount, converted by molar mass. Like-named read-outs stand apart in the source and are kept apart here. Positions of bridges follow the written chain, without caps; N, C: chain ends. Non-standard residues stand in square brackets, D forms with d. Residues, ends and D or L forms follow the SMILES beside them. *: point of attachment. Benzoyl(4-Ph) = O=C(c1ccc(-c2ccccc2)cc1)*; Dab = NCC[C@H](N)C(=O)O

Legend:
pig erythrocytes = experiment: Hemolytic assay; details: for % Hemolysis at 512 μg/mL of polymyxin / MHC5, minimum concentration that resulted in 5% red blood cell hemolysis: pig erythrocytes, 1 h at 37° C.
Protocol: The ability of the compounds to lyse eukaryotic red blood cells was measured by the amount of hemoglobin released upon incubation with pig erythrocytes, following a published protocol [30]. Briefly, fresh pig blood (generously provided by Dr. Richard Hodges, Director of Animal Care and Veterinary Services of the University of Manitoba) drawn from a pig's antecubital vein was centrifuged at 1000 g for 5 min at 4° C., washed with phosphate-buffered saline (PBS) three times, and re-suspended in the same buffer, consecutively. Compounds at study were 2-fold serially diluted in PBS on a 96-well plate and mixed with equal volumes of erythrocyte solution. Post 1 h incubation at 37° C., the intact cells were pelleted by centrifugation at 1000 g for 5 min at 4° C. Resulting supernatant was then transferred to a new 96-well plate. The hemoglobin released was then measured via an EMax Plus microplate reader (Molecular Devices, USA) at 570 nm wavelength. Erythrocytes in PBS with or without 0.1% Triton X-100 were used as positive or negative control, respectively.

[1] = tested on: P. aeruginosa CANWARD-2011 96846; format: cell-based, Pseudomonas aeruginosa
Procedure, shortened: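 MIC by CLSI broth microdilution. Inoculum ~5×10^5 CFU/mL in MHB (0.5 McFarland, then 1:50); 2-fold compound series; 37° C., 18 h.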

[2] = tested on: E. coli CANWARD-2011 97615; format: cell-based, Escherichia coli
Excerpt: Bacterial strains were either obtained from the American Type Culture Collection (ATCC), Canadian National Intensive Care Unit (CAN-ICU) surveillance study or the Canadian Ward Surveillance (CANWARD) study. Strains from both CAN-ICU and CANWARD are isolates recovered from patients diagnosed with a presumed infectious disease that were admitted in a participating medical center across Canada. Efflux-deficient strain PAO200 (lacking MexAB-OprM efflux system) and PA0750 (lacking MexAB-OprM, MexCD-OprJ, MexEF-OprN, MexJK and MexXY efflux systems, and the outer membrane protein OpmH) were kindly gifted by Dr. Ayush Kumar (University of Manitoba).
The in vitro antibacterial activity of the compounds studied were assessed by broth microdilution susceptibility testing following CLSI guidelines. Bacterial cultures were grown overnight prior to the assay. The overnight grown cultures were diluted in saline to 0.5 McFarland turbidity, followed by 1:50 dilution in Mueller-Hinton broth (MHB) for inoculation to a final concentration of approximately 5×10^5 colony forming units/mL. Testing was performed on 96-well plates where the tested compounds were 2-fold serially diluted in MHB and incubated with equal volumes of bacterial inoculum at 37° C. for 18 h. […] Wells containing MHB with or without bacterial cells were used as positive or negative control, respectively.

P. aeruginosa PAO1 = tested on: P. aeruginosa PAO1; design: MICDrug / MICDrug in combo / MIC of adjuvant in combo: unit not given beside the values
Protocol: The potential of the dilipid polymyxins to serve as an adjuvant in combination with other antibiotics was evaluated against P. aeruginosa PAO1 strain (Tables 4 and 7-12). […] Checkerboard assays were performed with the dilipid polymyxins in combination with twenty-one clinically-used antibiotics. The panel included representatives from the β-lactam, carbapenem, tetracycline, aminoglycoside and fluoroquinolone antibiotic families. Other agents that are used to treat Gram-negative bacterial infection such as fosfomycin, trimethoprim and chloramphenicol were also included. […] Fractional inhibitory concentration (FIC) index was calculated for each combination to measure potential synergism between the two agents. FIC was obtained by dividing the MIC of antibiotic/adjuvant in combination by the MIC of antibiotic/adjuvant alone, while FIC index was calculated by the summation of FIC indices for the antibiotic and adjuvant. An FIC index of ≤0.5, 0.5<x≤4, or >4 denotes for synergistic, additive or antagonistic interaction, respectively. Initially, we assessed the adjuvant properties of PMBN against the panel of 21 antibiotics.
The assay was performed on 96-well plates as previously described. Briefly, the antibiotic at study was 2-fold serially diluted along the x-axis, while the adjuvant was 2-fold serially diluted along the y-axis to create a matrix in which each well consists of a combination of both at different concentrations. Overnight grown bacterial cultures were diluted in saline to 0.5 McFarland turbidity, followed by 1:50 dilution in MHB and inoculation on each well to a final concentration of approximately 5×10^5 colony forming units/mL. Wells containing only MHB with or without bacterial cells were used as positive or negative control, respectively. […] The fractional inhibitory concentration (FIC) of the antibiotic was calculated via dividing the MIC of antibiotic in the presence of adjuvant by the MIC of antibiotic alone. Similarly, the FIC of adjuvant was calculated via dividing the MIC of adjuvant in the presence of antibiotic by the MIC of adjuvant alone. The FIC index was obtained by the summation of both FIC values. The FIC index was then interpreted as synergistic, additive, or antagonistic for values of ≤0.5, 0.5<x<4, or ≥4, respectively.

[3] = combination with Chloramphenicol

**Q.** colistin [reference compound] was tested. Which “% Hemolysis at 512 μg/mL of polymyxin” value (pig erythrocytes) did it give?
**A.** 1.6 ± 0.5%

**Q.** And the “MHC5, minimum concentration that resulted in 5% red blood cell hemolysis” value (pig erythrocytes)?
**A.** >512 µg/mL

**Q.** And the hemolytic activity (pig erythrocytes; up to the highest concentration tested of 512 μg/mL)?
**A.** no hemolytic activity

**Q.** Which results are given for `CC(C)C[C@@H]1NC(=O)[C@@H](Cc2ccccc2)NC(=O)[C@H](CCN)NC(=O)[C@@H](NC(=O)[C@H](CCN)NC(=O)[C@@H](NC(=O)[C@H](CCNC(=O)c2ccc(-c3ccccc3)cc2)NC(=O)c2ccc(-c3ccccc3)cc2)[C@@H](C)O)CCNC(=O)[C@H]([C@@H](C)O)NC(=O)[C@H](CCN)NC(=O)[C@H](CCN)NC1=O` [Compound 5, Dibiphenyl-4-Carboxylic Acid (Di-Biphenyl) Polymyxin] ({Benzoyl(4-Ph)}-[Dab](Benzoyl(4-Ph))T[Dab][Dab][Dab][dF]L[Dab][Dab]T; lactam 4-C)?
**A.** MIC [1]: 64 µg/mL (≈ 45 µM); MIC [2]: 32 µg/mL (≈ 22.5 µM); MIC of adjuvant alone (MIC1, MIC2, MIC3, MIC4, MIC5, MICPMBN) (P. aeruginosa PAO1; adjuvant alone, one value per checkerboard, in µg/mL): 16; FIC index (P. aeruginosa PAO1; combination with Aztreonam): 0.62; Interpretation (P. aeruginosa PAO1; combination with Aztreonam): Additive (An FIC index of ≤0.5, 0.5<x≤4, or >4 denotes for synergistic, additive or antagonistic interaction, respectively); FIC index (P. aeruginosa PAO1; combination with Ceftazidime): 0.62; Interpretation (P. aeruginosa PAO1; combination with Ceftazidime): Additive (An FIC index of ≤0.5, 0.5<x≤4, or >4 denotes for synergistic, additive or antagonistic interaction, respectively); FIC index (P. aeruginosa PAO1; [3]): 0.50; Interpretation (P. aeruginosa PAO1; [3]): Synergy (An FIC index of ≤0.5, 0.5<x≤4, or >4 denotes for synergistic, additive or antagonistic interaction, respectively); FIC index (P. aeruginosa PAO1; combination with Ciprofloxacin): 1.00; Interpretation (P. aeruginosa PAO1; combination with Ciprofloxacin): Additive (An FIC index of ≤0.5, 0.5<x≤4, or >4 denotes for synergistic, additive or antagonistic interaction, respectively); FIC index (P. aeruginosa PAO1; combination with Clindamycin): 0.53; Interpretation (P. aeruginosa PAO1; combination with Clindamycin): Additive (An FIC index of ≤0.5, 0.5<x≤4, or >4 denotes for synergistic, additive or antagonistic interaction, respectively); FIC index (P. aeruginosa PAO1; combination with Doripenem): 1.00; Interpretation (P. aeruginosa PAO1; combination with Doripenem): Additive (An FIC index of ≤0.5, 0.5<x≤4, or >4 denotes for synergistic, additive or antagonistic interaction, respectively); FIC index (P. aeruginosa PAO1; combination with Doxycycline): 0.53; Interpretation (P. aeruginosa PAO1; combination with Doxycycline): Additive (An FIC index of ≤0.5, 0.5<x≤4, or >4 denotes for synergistic, additive or antagonistic interaction, respectively); FIC index (P. aeruginosa PAO1; combination with Fosfomycin): 0.56; Interpretation (P. aeruginosa PAO1; combination with Fosfomycin): Additive (An FIC index of ≤0.5, 0.5<x≤4, or >4 denotes for synergistic, additive or antagonistic interaction, respectively); FIC index (P. aeruginosa PAO1; combination with Gentamicin): 2.01; Interpretation (P. aeruginosa PAO1; combination with Gentamicin): Additive (An FIC index of ≤0.5, 0.5<x≤4, or >4 denotes for synergistic, additive or antagonistic interaction, respectively); FIC index (P. aeruginosa PAO1; combination with Linezolid): 0.53; Interpretation (P. aeruginosa PAO1; combination with Linezolid): Additive (An FIC index of ≤0.5, 0.5<x≤4, or >4 denotes for synergistic, additive or antagonistic interaction, respectively); FIC index (P. aeruginosa PAO1; combination with Meropenem): 1.00; Interpretation (P. aeruginosa PAO1; combination with Meropenem): Additive (An FIC index of ≤0.5, 0.5<x≤4, or >4 denotes for synergistic, additive or antagonistic interaction, respectively); FIC index (P. aeruginosa PAO1; combination with Minocycline): 0.62; Interpretation (P. aeruginosa PAO1; combination with Minocycline): Additive (An FIC index of ≤0.5, 0.5<x≤4, or >4 denotes for synergistic, additive or antagonistic interaction, respectively); FIC index (P. aeruginosa PAO1; combination with Moxifloxacin): 0.75; Interpretation (P. aeruginosa PAO1; combination with Moxifloxacin): Additive (An FIC index of ≤0.5, 0.5<x≤4, or >4 denotes for synergistic, additive or antagonistic interaction, respectively); FIC index (P. aeruginosa PAO1; combination with Novobiocin): 0.50; Interpretation (P. aeruginosa PAO1; combination with Novobiocin): Synergy (An FIC index of ≤0.5, 0.5<x≤4, or >4 denotes for synergistic, additive or antagonistic interaction, respectively); FIC index (P. aeruginosa PAO1; combination with Piperacillin): 1.00; Interpretation (P. aeruginosa PAO1; combination with Piperacillin): Additive (An FIC index of ≤0.5, 0.5<x≤4, or >4 denotes for synergistic, additive or antagonistic interaction, respectively); Interpretation (P. aeruginosa PAO1; combination with Pleuromutilin): Additive (An FIC index of ≤0.5, 0.5<x≤4, or >4 denotes for synergistic, additive or antagonistic interaction, respectively); FIC index (P. aeruginosa PAO1; combination with Rifampicin): 0.31; Interpretation (P. aeruginosa PAO1; combination with Rifampicin): Synergy (An FIC index of ≤0.5, 0.5<x≤4, or >4 denotes for synergistic, additive or antagonistic interaction, respectively); FIC index (P. aeruginosa PAO1; combination with Streptomycin): 1.00; Interpretation (P. aeruginosa PAO1; combination with Streptomycin): Additive (An FIC index of ≤0.5, 0.5<x≤4, or >4 denotes for synergistic, additive or antagonistic interaction, respectively); FIC index (P. aeruginosa PAO1; combination with Tobramycin): 1.01; Interpretation (P. aeruginosa PAO1; combination with Tobramycin): Additive (An FIC index of ≤0.5, 0.5<x≤4, or >4 denotes for synergistic, additive or antagonistic interaction, respectively); FIC index (P. aeruginosa PAO1; combination with Trimethoprim): 0.62; Interpretation (P. aeruginosa PAO1; combination with Trimethoprim): Additive (An FIC index of ≤0.5, 0.5<x≤4, or >4 denotes for synergistic, additive or antagonistic interaction, respectively); FIC index (P. aeruginosa PAO1; combination with Vancomycin): 0.51; Interpretation (P. aeruginosa PAO1; combination with Vancomycin): Additive (An FIC index of ≤0.5, 0.5<x≤4, or >4 denotes for synergistic, additive or antagonistic interaction, respectively); MIC of adjuvant in combo (P. aeruginosa PAO1; in combination with Aztreonam): (8); MIC of adjuvant in combo (P. aeruginosa PAO1; in combination with Ceftazidime): (8); MIC of adjuvant in combo (P. aeruginosa PAO1; in combination with Chloramphenicol): (4); MIC of adjuvant in combo (P. aeruginosa PAO1; in combination with Ciprofloxacin): (8); MIC of adjuvant in combo (P. aeruginosa PAO1; in combination with Clindamycin): (8); MIC of adjuvant in combo (P. aeruginosa PAO1; in combination with Doripenem): (8); MIC of adjuvant in combo (P. aeruginosa PAO1; in combination with Doxycycline): (8); MIC of adjuvant in combo (P. aeruginosa PAO1; in combination with Fosfomycin): (8); MIC of adjuvant in combo (P. aeruginosa PAO1; in combination with Gentamicin): (0.25); MIC of adjuvant in combo (P. aeruginosa PAO1; in combination with Linezolid): (8); MIC of adjuvant in combo (P. aeruginosa PAO1; in combination with Meropenem): (8); MIC of adjuvant in combo (P. aeruginosa PAO1; in combination with Minocycline): (8); MIC of adjuvant in combo (P. aeruginosa PAO1; in combination with Moxifloxacin): (8); MIC of adjuvant in combo (P. aeruginosa PAO1; in combination with Novobiocin): (4); MIC of adjuvant in combo (P. aeruginosa PAO1; in combination with Piperacillin): (8); MIC of adjuvant in combo (P. aeruginosa PAO1; in combination with Pleuromutilin): (8); MIC of adjuvant in combo (P. aeruginosa PAO1; in combination with Rifampicin): (4); MIC of adjuvant in combo (P. aeruginosa PAO1; in combination with Streptomycin): (8); MIC of adjuvant in combo (P. aeruginosa PAO1; in combination with Tobramycin): (0.25); MIC of adjuvant in combo (P. aeruginosa PAO1; in combination with Trimethoprim): (8); MIC of adjuvant in combo (P. aeruginosa PAO1; in combination with Vancomycin): (8); % Hemolysis at 512 μg/mL of polymyxin (pig erythrocytes): 13.1 ± 1.4%; MHC5, minimum concentration that resulted in 5% red blood cell hemolysis (pig erythrocytes): 128 µg/mL
